Assay results as given in patent US20230210984A1, “ADOPTIVE IMMUNOTHERAPY” (The Council of the Queensland Institute of Medical Research, priority 2019, published 2023).

Experiments:
SNU719 and C666.1 cells = assay: Xcellegence cell growth curve (Example 3); format: cell-based; conditions: dual combination with HLA matched T cells 25:1 vs individual treatment, selumatinib 1 μM, JQ1 2.5 μM
Method: FIG. 11: Impact of dual combination of MEK1/2 inhibitor and HLA matched allogeneic EBV specific T cells. (A) Cell growth curve highlight the rate of cellular proliferation of SNU719 (upper panel) and C666.1 (lower panel) observed in the presence of HLA-matched EBV specific T cells (effector-to-target ratio of 25:1) and selumatinib (1 μM) individually and in combination, measured using Xcellegence. The effect of individual and dual combination on (B) cell proliferation based on Ki67 and (C) cell death based on active Caspase-3 of SNU719 expression (upper panel) and C666.1 (lower panel), performed using flow cytometry. The data are represented as the mean±SD from three independent experiments. P-values were calculated using one-way ANOVA: ns=not significant, *p<0.05, **p<0.01, ***p<0.001 and ****p<0.0001.
FIG. 15: Impact of dual combination of JQ1 inhibitor and HLA matched allogeneic EBV-specific T cells. The cell viability measured by MTS assay highlighting the impact of a HLA-matched EBV specific T cells at the effector-to-target ratio of 25:1 and JQ1 (2.5 μM) in suppressing cellular growth individually and in combination after 48 hrs of incubation with indicated (A) gastric (SNU719, YCCLE1 (upper panel)) and nasopharyngeal cancer cells (C17, C666.1 (lower panel)). […] P-values were calculated using one-way ANOVA: ns=not significant, *p<0.05, **p<0.01, ***p<0.001 and ****p<0.0001. […]

[1] = test system: SNU719 derived xenograft tumour; assay: SNU719 xenograft, selumatinib and TIG-001 in vivo; set-up: species or system NRG mice
Method: FIG. 19: Assessment of therapeutic efficacy of dual combination of selumatinib and allogeneic EBV-specific cytotoxic T cells in vivo. (A) The impact of the dual combination of selumatinib and allogeneic T cells (TIG-001) on the outgrowth of EBV-positive SNU719 xenografts in NRG mice was assessed. Tumour-bearing mice were treated with two doses of HLA-matched T cells (2×10^7 T cells per dose per mouse indicated by black arrow) and selumatinib (12.5 mg/Kg) orally for continuous 14 days, either individually or in combination. The growth of each xenograft is represented as the mean tumour area±SD from n=9 mice/group. (B) Gross morphology of the tumours isolated from the mice of indicated treatment groups. (C) Representation of tumour weight described in (B) from the mice of indicated treatment groups. The data are represented as the mean±SD from n=3 mice per group. P-values were calculated using one-way ANOVA. (D) Representation of viable percentage of tumour infiltrates observed across individually treated allogeneic T cells (TIG-001) and in combination with selumatinib as determined by CD45, CD3 and CD8 expression using flow cytometry. P-values were calculated using Student T test. (E) Kaplan-Meier overall survival analysis of the mice bearing EBV-associated tumours as described in (A) following individual and combination treatment of selumatinib and allogeneic T cells. The animals' survival (n=6 mice/group) was monitored over the indicated period of time and statistical significance was analysed by log-rank test: ns=not significant, *p<0.05, **p<0.01, ***p<0.001 and ****p<0.0001.
In next set of experiments, we wanted to investigate the effect of the above described small molecules in combination of HLA matched allogeneic EBV-specific T cells in vivo. We used the combination of selumatinib and HLA-matched T cell product (TIG-001) to treat SNU719 derived xenograft tumour model in female NRG mice. Once the xenograft reached the size of ˜25 mm^2, we treated the mice with two infusion of TIG-001 (2×10^7 cells per infusion) individually and in combination with daily dosage selumatinib (12.5 mg/kg), administered orally for 14 days. […] Next, we phenotyped the infiltration of the human origin lymphocytes in these tumours using flow cytometry.

SNU719 cells = assay: Xcellegence growth curve (Example 2); format: cell-based; conditions: dual combination with EBV-specific T cells vs individual treatment
Method: P-values were calculated using one-way ANOVA: *p<0.05, **p<0.01, ***p<0.001 and ****p<0.0001.
We treated SNU719 cells (gastric cancer cells) with MEK1/2 inhibitor (AZD6244 (or selumetanib) and trematinib) at concentration of 0.5 μM and 1.0 μM respectively, as individual treatment or in combination with EBV-specific T cells (25:1) as effector to target ratio.

SMILES | rate of cell death (Xcellegence) (SNU719 and C666.1 cells) | number of viable CD45+CD3+CD8+ cells in tumours ([1]; combination with TIG-001 vs individually treated T cell group) | survival rate ([1]; dual combination with TIG-001 vs individual treatment group) | size of the tumours ([1]; dual combination with TIG-001 vs individual treatment, when control reached 150 mm^2) | tumour progression ([1]; selumatinib 12.5 mg/kg orally 14 days plus two infusions of TIG-001 (2×10^7 cells) vs individual treatment) | rate of cell death (Xcellegence) (SNU719 cells)
Cc1sc2c(c1C)C(c1ccc(Cl)cc1)=N[C@@H](CC(=O)OC(C)(C)C)c1nnc(C)n1-2 [JQ1] | faster cell death |  |  |  |  | 
Cn1cnc2c(F)c(Nc3ccc(Br)cc3Cl)c(C(=O)NOCCO)cc21 [selumetanib] | faster cell death | significantly more | better survival rate | significantly smaller | significant reduction | faster cell death
